Like-named read-outs stand apart in the source and are kept apart here.
Experiments:
Assay type in all cases: cell-based
[1] = test system: Ustilago nuda; assay: Plate medium fungicidal assay, barley loose smut U.n (Experimental Example 5); conditions: for inhibition at 5 µg/mL / inhibition at 50 µg/mL: Ustilago nuda
Protocol: (§1) In this Experimental Example, the fungicidal effects of the inventive compounds on various phytopathogenic fungi for plants and hazardous microorganism for industrial materials were examined by the methods described below. Each inventive compound was dissolved in 2 ml of dimethyl sulfoxide. 0.6 ml of this solution was added to 60 nil of a PDA medium (potato dextrose agar medium) at about 60 degrees C., which was mixed thoroughly in a 100-ml conical flask, and poured into a dish, where it was solidified, thereby obtaining a plate medium containing the inventive compound at 50 mg/L and 5 mg/L. On the other hand, a subject microorganism previously cultured on a plate medium was cut out using a cork borer whose diameter was 4 mm, and inoculated to the test compound-containing plate medium described above. […] The growth degree of the microorganism on the test compound-containing plate medium thus observed was compared with the growth degree of the microorganism in the untreated group, and % mycelial growth inhibition was calculated by the following equation. R=100(dc−dt)/dc wherein R=% mycelial extension inhibition, dc=flora diameter in untreated plate, dt=flora diameter in treated plate. The results obtained as described above were evaluated as one of the 5 grades according to the following criteria. […] Barley loose smut (Ustilago nuda) U.n

[2] = test system: Alternaria alternata; assay: Plate medium fungicidal assay, Alternaria blotch A.m (Experimental Example 5); conditions: for inhibition at 5 µg/mL / inhibition at 50 µg/mL: Alternaria alternata
Protocol: as §1, with “Alternaria blotch (Alternaria alternata) A.m” for “Barley loose smut (Ustilago nuda) U.n”

[3] = test system: Sclerotinia sclerotiorum; assay: Plate medium fungicidal assay, Sclerotinia rot S.s (Experimental Example 5); conditions: for inhibition at 5 µg/mL / inhibition at 50 µg/mL: Sclerotinia sclerotiorum
Protocol: as §1, with “Sclerotinia rot (Sclerotinia sclerotiorum) S.s” for “Barley loose smut (Ustilago nuda) U.n”

[4] = test system: Botritis cinerea; assay: Plate medium fungicidal assay, gray mold B.c (Experimental Example 5)
Protocol: as §1, with “Gray mold (Botritis cinerea) B.c” for “Barley loose smut (Ustilago nuda) U.n”

[5] = test system: Trichoderma sp.; assay: Plate medium assay, industrial material deteriorating microorganism, Trichoderma (Experimental Example 5); conditions: treatment at 50 mg/l, PDA plate medium, read-out: growth inhibition grade
Protocol: In this Experimental Example, the fungicidal effects of the inventive compounds on various phytopathogenic fungi for plants and hazardous microorganism for industrial materials were examined by the methods described below. Each inventive compound was dissolved in 2 ml of dimethyl sulfoxide. 0.6 ml of this solution was added to 60 nil of a PDA medium (potato dextrose agar medium) at about 60 degrees C., which was mixed thoroughly in a 100-ml conical flask, and poured into a dish, where it was solidified, thereby obtaining a plate medium containing the inventive compound at 50 mg/L and 5 mg/L. On the other hand, a subject microorganism previously cultured on a plate medium was cut out using a cork borer whose diameter was 4 mm, and inoculated to the test compound-containing plate medium described above. […] The growth degree of the microorganism on the test compound-containing plate medium thus observed was compared with the growth degree of the microorganism in the untreated group, and % mycelial growth inhibition was calculated by the following equation. R=100(dc-dt)/dc wherein R=% mycelial extension inhibition, dc=flora diameter in untreated plate, dt=flora diameter in treated plate. The results obtained as described above were evaluated as one of the 5 grades according to the following criteria.

[6] = plate medium containing compound at 5 mg/L, read-out: Growth inhibition grade, U.n
[7] = plate medium containing compound at 50 mg/L, read-out: Growth inhibition grade, U.n
[8] = plate medium containing compound at 5 mg/L, read-out: Growth inhibition grade, A.m
[9] = plate medium containing compound at 50 mg/L, read-out: Growth inhibition grade, A.m
[10] = plate medium containing compound at 5 mg/L, read-out: Growth inhibition grade, S.s
[11] = plate medium containing compound at 50 mg/L, read-out: Growth inhibition grade, S.s
[12] = plate medium containing compound at 5 mg/L, read-out: Growth inhibition grade, B.c
[13] = plate medium containing compound at 50 mg/L, read-out: Growth inhibition grade, B.c
[14] = plate medium, 5 mg/L, read-out: growth inhibition grade U.n
[15] = plate medium, 50 mg/L, read-out: growth inhibition grade U.n
[16] = plate medium, 5 mg/L, read-out: growth inhibition grade A.m
[17] = plate medium, 50 mg/L, read-out: growth inhibition grade A.m
[18] = plate medium, 5 mg/L, read-out: growth inhibition grade S.s
[19] = plate medium, 50 mg/L, read-out: growth inhibition grade S.s
[20] = plate medium, 5 mg/L, read-out: growth inhibition grade B.c
[21] = plate medium, 50 mg/L, read-out: growth inhibition grade B.c
[22] = plate medium containing compound at 5 mg/L
[23] = plate medium containing compound at 50 mg/L

SMILES | inhibition at 5 µg/mL [1, 6] [%] | inhibition at 50 µg/mL [1, 7] [%] | inhibition at 5 µg/mL [2, 8] [%] | inhibition at 50 µg/mL [2, 9] [%] | inhibition at 5 µg/mL [3, 10] [%] | inhibition at 50 µg/mL [3, 11] [%] | inhibition at 5 µg/mL [4, 12] [%] | inhibition at 50 µg/mL [4, 13] [%] | inhibition at 50 µg/mL [5] [%] | inhibition at 5 µg/mL [1, 14] [%] | inhibition at 50 µg/mL [1, 15] [%] | inhibition at 5 µg/mL [2, 16] [%] | inhibition at 50 µg/mL [2, 17] [%] | inhibition at 5 µg/mL [3, 18] [%] | inhibition at 50 µg/mL [3, 19] [%] | inhibition at 5 µg/mL [4, 20] [%] | inhibition at 50 µg/mL [4, 21] [%] | also measured
C[C@]1(CBr)CC[C@@H](Cc2ccc(Cl)cc2)[C@]1(O)Cn1cncn1 (racemic) [Compound I-25, (1RS,2SR,5SR)-2-bromomethyl-5-(4-chlorobenzyl)-2-methyl-1-(1H-1,2,4-triazol-1-ylmethyl)cyclopentanol] | 40 to 60 | > 80 | 60 to 80 | > 80 | > 80 | > 80 | > 80 | > 80 | 60 to 80 |  |  |  |  |  |  |  |  | 
C[C@@]1(CCCl)CC[C@@H](Cc2ccc(Cl)cc2)[C@]1(O)Cn1cncn1 (racemic) [Compound I-104, (1RS,2SR,5SR)-5-(4-chlorobenzyl)-2-(2-chloroethyl)-2-methyl-1-(1H-1,2,4-triazol-1-ylmethyl)cyclopentanol] |  |  |  |  |  |  |  |  | 60 to 80 | > 80 | > 80 | > 80 | > 80 | > 80 | > 80 | > 80 | > 80 | 
CC(Cl)=C[C@]1(C)CC[C@@H](Cc2ccc(Cl)cc2)[C@]1(O)Cn1cncn1 (racemic) [Compound I-115, (1RS,2SR,5SR)-5-(4-chlorobenzyl)-2-(2-chloropropenyl)-2-methyl-1-(1H-1,2,4-triazol-1-ylmethyl)cyclopentanol] |  |  |  |  |  |  |  |  | 60 to 80 | 60 to 80 | > 80 | > 80 | > 80 | > 80 | > 80 | > 80 | > 80 | 
CC[C@]1(CCl)CC[C@@H](Cc2ccc(Cl)cc2)[C@]1(O)Cn1cncn1 (racemic) [Compound I-36, (1RS,2SR,5SR)-5-(4-chlorobenzyl)-2-chloromethyl-2-ethyl-1-(1H-1,2,4-triazol-1-ylmethyl)cyclopentanol] | 60 to 80 | > 80 | > 80 | > 80 | > 80 | > 80 | 60 to 80 | > 80 | 60 to 80 |  |  |  |  |  |  |  |  | 
C[C@]1(CCl)CC[C@H](Cc2ccc(Cl)cc2)[C@]1(O)Cn1cncn1 (racemic) [Compound I-301, (1RS,2SR,5RS)-5-(4-chlorobenzyl)-2-chloromethyl-2-methyl-1-[1,2,4]triazol-1-ylmethylcyclopentanol] |  |  |  |  |  |  |  |  | 60 to 80 | > 80 | > 80 | > 80 | > 80 | > 80 | > 80 | > 80 | > 80 | 
C[C@]1(CCl)CC[C@@H](Cc2cccc(Cl)c2)[C@]1(O)Cn1cncn1 (racemic) [Compound I-74, (1RS,2SR,5SR)-5-(3-chlorobenzyl)-2-chloromethyl-2-methyl-1-(1H-1,2,4-triazol-1-ylmethyl)cyclopentanol] | > 80 | > 80 | 60 to 80 | > 80 | > 80 | > 80 | > 80 | > 80 | 60 to 80 |  |  |  |  |  |  |  |  | 
Cc1ccc(C[C@@H]2CC[C@](C)(CCl)[C@@]2(O)Cn2cncn2)cc1 (relative stereo) [Compound I-80] |  |  |  |  |  |  |  |  |  |  |  |  |  |  |  |  |  | Growth inhibition grade, U.n [1, 22]: 5 (% Mycerial growth inhibition of 80% or higher); Growth inhibition grade, U.n [1, 23]: 5 (% Mycerial growth inhibition of 80% or higher); Growth inhibition grade, A.m [2, 22]: 5 (% Mycerial growth inhibition of 80% or higher); Growth inhibition grade, A.m [2, 23]: 5 (% Mycerial growth inhibition of 80% or higher); Growth inhibition grade, S.s [3, 22]: 5 (% Mycerial growth inhibition of 80% or higher); Growth inhibition grade, S.s [3, 23]: 5 (% Mycerial growth inhibition of 80% or higher); Growth inhibition grade, B.c [4, 22]: 5 (% Mycerial growth inhibition of 80% or higher); Growth inhibition grade, B.c [4, 23]: 5 (% Mycerial growth inhibition of 80% or higher)
CC[C@]1(CCl)CC[C@@H](Cc2ccccc2)[C@]1(O)Cn1cncn1 (relative stereo) [Compound I-97] |  |  |  |  |  |  |  |  |  |  |  |  |  |  |  |  |  | Growth inhibition grade, U.n [1, 22]: 5 (% Mycerial growth inhibition of 80% or higher); Growth inhibition grade, U.n [1, 23]: 5 (% Mycerial growth inhibition of 80% or higher); Growth inhibition grade, A.m [2, 22]: 4 (% Mycerial growth inhibition of less than 80 to 60% or higher); Growth inhibition grade, A.m [2, 23]: 5 (% Mycerial growth inhibition of 80% or higher); Growth inhibition grade, S.s [3, 22]: 5 (% Mycerial growth inhibition of 80% or higher); Growth inhibition grade, S.s [3, 23]: 5 (% Mycerial growth inhibition of 80% or higher); Growth inhibition grade, B.c [4, 22]: 5 (% Mycerial growth inhibition of 80% or higher); Growth inhibition grade, B.c [4, 23]: 5 (% Mycerial growth inhibition of 80% or higher)
